{
  "source": "patent US11964949B2",
  "about": "“Substituted phenyloxazolidinones for antimicrobial therapy” (priority 2015, dated 2024)",
  "key": {"tuberculosis": {"system": "tuberculosis", "conditions": "cited from earlier work"}, "[1]": {"system": "mitochondrial protein synthesis (MPS) in H9C2 cells", "test": "In vitro assay for MPS inhibition (COX-1 / SDH-A ELISA in H9C2 cells)", "assay_type": "cell-based, rat", "conditions": "read-out: IC50 (μM) MPS inhibition"}, "[2]": {"system": "Mycobacterium tuberculosis H37Rv", "test": "In vitro assay for antimicrobial susceptibility (microplate Alamar blue, MIC)", "assay_type": "cell-based", "conditions": "for MIC: Mycobacterium tuberculosis, read-out: MIC (μg/mL) against H37Rv"}, "[3]": {"conditions": "Rattus norvegicus, 120 h, H9C2 cells, 5 days incubation"}, "[4]": {"conditions": "M. tuberculosis H37Rv, 7H9 broth, Alamar blue"}},
  "note": "Like-named read-outs stand apart in the source and are kept apart here.",
  "data": [
    {"compound": "CC(=O)NC[C@H]1CN(c2ccc(N3CCOCC3)c(F)c2)C(=O)O1", "note": "[Linezolid]", "values": [
      {"measurement": "activity in murine models of tuberculosis", "setting": "tuberculosis", "result": "only modest activity"}
    ]},
    {"compound": "O=C(NC[C@H]1CN(c2ccc(N3[C@@H]4CC[C@H]3CSC4)c(F)c2)C(=O)O1)C1CCC1", "note": "[OTB-507, N—(((S)-3-(4-((1R,5S)-3-Thia-8-aza-bicyclo[3.2.1]octan-8-yl)-3-fluorophenyl)-2-oxo-oxazolidin-5-yl)methyl)cyclobutanecarboxamide]", "values": [
      {"measurement": "IC50", "setting": "[1]; Rattus norvegicus, H9c2, 120 h", "result": 10, "unit": "µM"},
      {"measurement": "MIC", "setting": "[2]; H37RV", "result": 0.7, "unit": "µg/mL"}
    ]},
    {"compound": "O=C(NC[C@H]1CN(c2cc(F)c(N3[C@@H]4CC[C@H]3CSC4)c(F)c2)C(=O)O1)C1CC1", "note": "[OTB-508, N—(((S)-3-(4-((1R,5S)-3-Thia-8-aza-bicyclo[3.2.1]octan-8-yl)-3,5-difluorophenyl)-2-oxo-oxazolidin-5-yl)methyl)cyclopropanecarboxamide]", "values": [
      {"measurement": "IC50", "setting": "[1]; Rattus norvegicus, H9c2, 120 h", "result": 8, "unit": "µM"},
      {"measurement": "MIC", "setting": "[2]; H37RV", "result": 0.2, "unit": "µg/mL"}
    ]},
    {"compound": "O=C(NC[C@H]1CN(c2cc(F)c(N3[C@@H]4CC[C@H]3CSC4)c(F)c2)C(=O)O1)C1CCC1", "note": "[OTB-509, N—(((S)-3-(4-((1R,5S)-3-Thia-8-aza-bicyclo[3.2.1]octan-8-yl)-3,5-difluorophenyl)-2-oxo-oxazolidin-5-yl)methyl)cyclobutanecarboxamide]", "values": [
      {"measurement": "IC50", "setting": "[1]; Rattus norvegicus, H9c2, 120 h", "result": 5, "unit": "µM"},
      {"measurement": "MIC", "setting": "[2]; H37RV", "result": 0.04, "unit": "µg/mL"}
    ]},
    {"compound": "CC(=O)NC[C@H]1CN(c2cc(F)c(N3[C@@H]4CC[C@H]3CSC4)c(F)c2)C(=O)O1", "note": "[OTB-510, N—(((S)-3-(4-((1R,5S)-3-Thia-8-aza-bicyclo[3.2.1]octan-8-yl)-3,5-difluorophenyl)-2-oxo-oxazolidin-5-yl)methyl)acetamide]", "values": [
      {"measurement": "IC50", "setting": "[1]; Rattus norvegicus, H9c2, 120 h", "result": "3 to 7", "unit": "µM"},
      {"measurement": "MIC", "setting": "[2]; H37RV", "result": "0.03 to 0.22", "unit": "µg/mL"}
    ]},
    {"compound": "COC(=O)NC[C@H]1CN(c2cc(F)c(N3[C@@H]4CC[C@H]3CSC4)c(F)c2)C(=O)O1", "note": "[OTB-512, Methyl (((S)-3-(4-((1R,5S)-3-thia-8-azabicyclo[3.2.1]octan-8-yl)-3,5-difluorophenyl)-2-oxo-oxazolidin-5-yl)methyl)carbamate]", "values": [
      {"measurement": "IC50", "setting": "[1]; Rattus norvegicus, H9c2, 120 h", "result": 42.5, "unit": "µM"},
      {"measurement": "MIC", "setting": "[2]; H37RV", "result": 0.063, "unit": "µg/mL"}
    ]},
    {"compound": "O=C(NC[C@H]1CN(c2cc(F)c(N3[C@@H]4CC[C@H]3C[S+]([O-])C4)c(F)c2)C(=O)O1)C1CCC1", "note": "(stereo partly drawn) [OTB-513, N-(((5S)-3-(3,5-Difluoro-4-((1R,5S)-3-oxido-3-thia-8-azabicyclo[3.2.1]octan-8-yl)phenyl)-2-oxo-oxazolidin-5-yl)methyl)cyclobutanecarboxamide]", "values": [
      {"measurement": "IC50", "setting": "[1]; Rattus norvegicus, H9c2, 120 h", "result": 13, "unit": "µM"},
      {"measurement": "MIC", "setting": "[2]; H37RV", "result": 1.66, "unit": "µg/mL"}
    ]},
    {"compound": "CC(=O)NC[C@H]1CN(c2cc(F)c(N3[C@@H]4CC[C@H]3C[S+]([O-])C4)c(F)c2)C(=O)O1", "note": "(stereo partly drawn) [OTB-514, N-(((5S)-3-(3,5-Difluoro-4-((1R,5S)-3-oxido-3-thia-8-azabicyclo[3.2.1]octan-8-yl)phenyl)-2-oxo-oxazolidin-5-yl)methyl) acetamide]", "values": [
      {"measurement": "IC50", "setting": "[1]; Rattus norvegicus, H9c2, 120 h", "result": 25, "unit": "µM"},
      {"measurement": "MIC", "setting": "[2]; H37RV", "result": 0.5, "unit": "µg/mL"}
    ]},
    {"compound": "O=C1O[C@@H](CO)CN1c1cc(F)c(N2CC3(CSC3)C2)c(F)c1", "note": "[OTB-516, (R)-3-(3,5-Difluoro-4-(2-thia-6-azaspiro[3.3]heptan-6-yl)phenyl)-5-(hydroxymethyl) oxazolidin-2-one]", "values": [
      {"measurement": "IC50", "setting": "[1]; [3]", "result": 15.3, "unit": "µM"},
      {"measurement": "MIC", "setting": "[2]; [4]", "result": 0.465, "unit": "µg/mL"}
    ]},
    {"compound": "CS(=O)(=O)NC[C@H]1CN(c2cc(F)c(N3CC4(CSC4)C3)c(F)c2)C(=O)O1", "note": "[OTB-516-2A]", "values": [
      {"measurement": "IC50", "setting": "[1]; [3]", "result": "> 100", "unit": "µM"},
      {"measurement": "MIC", "setting": "[2]; [4]", "result": 0.05, "unit": "µg/mL"}
    ]},
    {"compound": "CS(=O)(=O)NC[C@H]1CN(c2cc(F)c(N3CC4(C3)C[S+]([O-])C4)c(F)c2)C(=O)O1", "note": "[OTB-516-2B]", "values": [
      {"measurement": "IC50", "setting": "[1]; [3]", "result": "> 100", "unit": "µM"},
      {"measurement": "MIC", "setting": "[2]; [4]", "result": 3, "unit": "µg/mL"}
    ]},
    {"compound": "CNC(=O)OC[C@H]1CN(c2cc(F)c(N3CC4(CSC4)C3)c(F)c2)C(=O)O1", "note": "[OTB-516-4A]", "values": [
      {"measurement": "IC50", "setting": "[1]; [3]", "result": "> 100", "unit": "µM"},
      {"measurement": "MIC", "setting": "[2]; H37RV", "result": 0.03, "unit": "µg/mL"}
    ]},
    {"compound": "CNC(=O)OC[C@H]1CN(c2cc(F)c(N3CC4(C3)C[S+]([O-])C4)c(F)c2)C(=O)O1", "note": "[OTB-516-4B]", "values": [
      {"measurement": "IC50", "setting": "[1]; [3]", "result": "> 100", "unit": "µM"},
      {"measurement": "MIC", "setting": "[2]; H37RV", "result": 4.7, "unit": "µg/mL"}
    ]},
    {"compound": "O=C1O[C@@H](Cn2ccnn2)CN1c1cc(F)c(N2C3CCC2C[S+]([O-])C3)c(F)c1", "note": "(stereo partly drawn) [OTB-517]", "values": [
      {"measurement": "IC50", "setting": "[1]; Rattus norvegicus, H9c2, 120 h", "result": "30 to 55", "unit": "µM"},
      {"measurement": "MIC", "setting": "[2]; H37RV", "result": "1.3 to 2", "unit": "µg/mL"}
    ]},
    {"compound": "COC(=O)NC[C@H]1CN(c2ccc(N3C4CCC3C[S+]([O-])C4)c(F)c2)C(=O)O1", "note": "(stereo partly drawn) [OTB-518]", "values": [
      {"measurement": "IC50", "setting": "[1]; Rattus norvegicus, H9c2, 120 h", "result": 73, "unit": "µM"},
      {"measurement": "MIC", "setting": "[2]; H37RV", "result": 3.5, "unit": "µg/mL"}
    ]},
    {"compound": "COC(=O)NC[C@H]1CN(c2cc(F)c(N3C4CCC3C[S+]([O-])C4)c(F)c2)C(=O)O1", "note": "(stereo partly drawn) [OTB-519]", "values": [
      {"measurement": "IC50", "setting": "[1]; Rattus norvegicus, H9c2, 120 h", "result": 51, "unit": "µM"},
      {"measurement": "MIC", "setting": "[2]; H37RV", "result": 0.9, "unit": "µg/mL"}
    ]},
    {"compound": "CC(=O)NC[C@H]1CN(c2cc(F)c(N3CC4(C3)C[S+]([O-])C4)c(F)c2)C(=O)O1", "note": "[OTB-520]", "values": [
      {"measurement": "IC50", "setting": "[1]; [3]", "result": 17, "unit": "µM"},
      {"measurement": "MIC", "setting": "[2]; [4]", "result": 0.4, "unit": "µg/mL"}
    ]},
    {"compound": "O=C1O[C@@H](Cn2ccnn2)CN1c1cc(F)c(N2CC3(C2)C[S+]([O-])C3)c(F)c1", "note": "[OTB-522]", "values": [
      {"measurement": "IC50", "setting": "[1]; [3]", "result": 38, "unit": "µM"},
      {"measurement": "MIC", "setting": "[2]; [4]", "result": 1, "unit": "µg/mL"}
    ]},
    {"compound": "CC(=O)NC[C@H]1CN(c2ccc(N3CC4(C3)C[S+]([O-])C4)c(F)c2)C(=O)O1", "note": "[OTB-523]", "values": [
      {"measurement": "IC50", "setting": "[1]; [3]", "result": 4, "unit": "µM"},
      {"measurement": "MIC", "setting": "[2]; [4]", "result": 0.5, "unit": "µg/mL"}
    ]},
    {"compound": "(R)-5-((2H-1,2,3-Triazol-2-yl)methyl)-3-(3-fluoro-4-(2-oxa-6-azaspiro[3.3]heptan-6-yl)phenyl)oxazolidin-2-one [OTB-204]", "values": [
      {"measurement": "IC50", "setting": "[1]; H9C2 cells, 5 days incubation", "result": "> 100", "unit": "µM"},
      {"measurement": "MIC (μg/mL) against H37Rv", "setting": "[2]; [4]", "result": "3.2 to 3.7", "unit": "µg/mL"}
    ]}
  ]
}
